# Measurements published in ChEMBL document CHEMBL4613264, “Design, Synthesis, and Biological Evaluation of New Peripheral 5HT2A Antagonists for Nonalcoholic Fatty Liver Disease” (J Med Chem, 2020).
# Activity calls are given as the source filed them. The calls are words filed in the database; no cut-off is given here.
# Key:
# [1] = Drug level in ICR mouse brain at 10 mg/kg, ip measured after 0.5 hrs by LC-MS/MS analysis; details: read-out: Drug uptake
# [2] = Plasma concentration in ICR mouse at 10 mg/kg, ip measured after 0.5 hrs by LC-MS/MS analysis
# [3] = Ratio of drug level in brain to plasma of ICR mouse at 10 mg/kg, ip measured after 0.5 hrs by LC-MS/MS analysis; details: read-out: BPR
# [4] = target: T1, 5-hydroxytryptamine receptor 2A (Homo sapiens, UniProt P28223); assay: Antagonist activity at 5HT2A receptor (unknown origin) expressed in HEK293 cells assessed as inhibition of serotonin hydrochloride-induced calcium flux preincubated for 1 hr followed by serotonin hydrochloride addition by calcium 6 dye based FLIPR assay; assay type: functional, cell-based
# Vero = assay: Cytotoxicity against African green monkey Vero cells; assay type: cell-based; details: Chlorocebus sabaeus
# HFL1 = assay: Cytotoxicity against human HFL1 cells; assay type: cell-based
# [5] = Stability in human liver microsomes assessed as parent compound remaining measured after 30 mins; assay type: ADME, Microsome; details: read-out: Stability
# [6] = Plasma concentration in ICR mouse at 5 mg/kg, iv measured after 0.5 hrs by LC-MS/MS analysis; assay type: ADME, organism-based
# [7] = Drug level in ICR mouse brain at 5 mg/kg, iv measured after 0.5 hrs by LC-MS/MS analysis; assay type: ADME, organism-based; details: read-out: Drug uptake
# [8] = Ratio of drug level in brain to plasma of ICR mouse at 5 mg/kg, iv measured after 0.5 hrs by LC-MS/MS analysis; assay type: ADME, organism-based; details: read-out: BPR
# L929 = assay: Cytotoxicity against mouse L929 cells; assay type: cell-based
# NIH3T3 = assay: Cytotoxicity against mouse NIH/3T3 cells; assay type: cell-based
# CHO-K1 = assay: Cytotoxicity against CHOK1 cells; assay type: cell-based; details: Cricetulus griseus
# hERG (KCNH2) = hERG (KCNH2) (Homo sapiens, UniProt Q12809); assay: Inhibition of human ERG at 10 uM relative to control
# [9] = target: T2, 5-hydroxytryptamine receptor 1A (Homo sapiens) (UniProt P08908); assay: Antagonist activity at human 5HT1A expressed in mouse BA/F3 cells assessed as inhibition of serotonin-induced cAMP accumulation at 1 uM by fluorescence assay relative to control; assay type: functional, cell-based; details: BaF3
# T2 sequence (whole entry): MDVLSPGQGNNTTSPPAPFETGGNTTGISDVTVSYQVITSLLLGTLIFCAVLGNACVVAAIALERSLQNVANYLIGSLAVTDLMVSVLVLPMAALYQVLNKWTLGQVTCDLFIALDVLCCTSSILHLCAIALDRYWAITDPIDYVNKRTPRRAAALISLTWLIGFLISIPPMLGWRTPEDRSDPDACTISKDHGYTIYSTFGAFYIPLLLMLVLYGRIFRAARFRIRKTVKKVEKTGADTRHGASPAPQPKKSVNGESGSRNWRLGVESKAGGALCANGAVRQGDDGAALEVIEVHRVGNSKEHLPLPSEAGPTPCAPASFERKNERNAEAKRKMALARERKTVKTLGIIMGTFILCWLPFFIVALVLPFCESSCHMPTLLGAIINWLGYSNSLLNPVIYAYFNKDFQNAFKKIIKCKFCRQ
# [10] = target: 5-hydroxytryptamine receptor 1B (Homo sapiens) (UniProt P28222); assay: Antagonist activity at recombinant human 5HT1B expressed in human HeLa cells assessed as inhibition of serotonin-induced cAMP accumulation at 1 uM measured after 5 mins by TR-FRET assay relative to control; assay type: functional, cell-based
# [11] = target: T1, 5-hydroxytryptamine receptor 2A; assay: Antagonist activity at recombinant human full-length 5HT2A receptor expressed in CHOK1 cells assessed as inhibition of serotonin-induced inositol phosphate accumulation at 1 uM measured after 30 mins by TR-FRET assay relative to control; assay type: functional, cell-based; details: CHO-K1
# [12] = target: 5-hydroxytryptamine receptor 2B (Homo sapiens) (UniProt P41595); assay: Antagonist activity at recombinant human full-length 5HT2B receptor expressed in CHOK1 cells assessed as inhibition of serotonin-induced inositol phosphate accumulation at 1 uM measured after 30 mins by TR-FRET assay relative to control; assay type: functional, cell-based; details: CHO-K1
# [13] = target: T3, 5-hydroxytryptamine receptor 2C (Homo sapiens) (UniProt P28335); assay: Antagonist activity at recombinant human 5HT2C receptor expressed in HEK293 cells assessed as inhibition of serotonin-induced inositol phosphate accumulation at 1 uM measured after 30 mins by HTRF assay relative to control; assay type: functional, cell-based
# T3 sequence (whole entry): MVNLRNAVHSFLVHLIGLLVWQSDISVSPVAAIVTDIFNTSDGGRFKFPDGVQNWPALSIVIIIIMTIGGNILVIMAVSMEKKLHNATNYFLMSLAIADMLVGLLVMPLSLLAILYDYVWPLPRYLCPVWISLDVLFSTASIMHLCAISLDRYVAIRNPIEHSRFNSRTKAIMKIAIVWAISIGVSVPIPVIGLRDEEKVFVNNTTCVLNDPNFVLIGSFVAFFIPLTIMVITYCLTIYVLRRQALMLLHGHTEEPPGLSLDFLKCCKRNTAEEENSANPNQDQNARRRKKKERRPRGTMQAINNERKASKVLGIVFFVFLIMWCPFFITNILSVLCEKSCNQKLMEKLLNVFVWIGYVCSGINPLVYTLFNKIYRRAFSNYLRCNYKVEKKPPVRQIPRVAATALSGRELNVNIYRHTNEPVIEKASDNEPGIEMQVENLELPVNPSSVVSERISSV
# [14] = target: T4, 5-hydroxytryptamine receptor 3A (Homo sapiens) (UniProt P46098); assay: Antagonist activity at 5HT3 (unknown origin) at 1 uM relative to control
# T4 sequence (whole entry): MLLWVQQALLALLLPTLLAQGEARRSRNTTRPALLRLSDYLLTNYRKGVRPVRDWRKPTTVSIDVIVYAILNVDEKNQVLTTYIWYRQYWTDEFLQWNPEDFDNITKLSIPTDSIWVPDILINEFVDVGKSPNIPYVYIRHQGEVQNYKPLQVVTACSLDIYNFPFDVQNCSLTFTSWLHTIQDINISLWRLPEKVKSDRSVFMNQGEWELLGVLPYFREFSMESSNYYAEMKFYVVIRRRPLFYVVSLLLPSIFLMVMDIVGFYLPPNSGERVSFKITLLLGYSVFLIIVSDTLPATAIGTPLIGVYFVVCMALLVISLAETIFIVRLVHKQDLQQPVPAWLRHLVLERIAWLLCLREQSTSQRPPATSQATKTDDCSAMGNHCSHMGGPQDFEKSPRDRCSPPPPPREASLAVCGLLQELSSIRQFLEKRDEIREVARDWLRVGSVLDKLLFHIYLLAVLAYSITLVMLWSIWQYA
# [15] = target: 5-hydroxytryptamine receptor 7 (Homo sapiens) (UniProt P34969); assay: Antagonist activity at recombinant human 5HT7 receptor expressed in CHOK1 cells assessed as inhibition of serotonin-induced cAMP accumulation at 1 uM measured after 30 mins by HTRF assay relative to control; assay type: functional, cell-based; details: CHO-K1
# [16] = Half life in Sprague-Dawley rat at 5 mg/kg, iv by LC-MS/MS analysis; assay type: ADME, organism-based; details: in vivo
# [17] = AUCt in Sprague-Dawley rat at 5 mg/kg, iv by LC-MS/MS analysis; assay type: ADME, organism-based; details: in vivo
# [18] = AUC (infinity) in Sprague-Dawley rat at 5 mg/kg, iv by LC-MS/MS analysis; assay type: ADME, organism-based; set-up: dose 5 mg/kg, time infinity, route intravenous; details: in vivo
# [19] = Clearance in Sprague-Dawley rat at 5 mg/kg, iv by LC-MS/MS analysis; assay type: ADME, organism-based; details: in vivo
# [20] = Volume of distribution at steady state in Sprague-Dawley rat at 5 mg/kg, iv by LC-MS/MS analysis; assay type: ADME, organism-based; details: in vivo, read-out: Vdss
# Mus musculus [21] = assay: Protection against 10 week HFD-induced liver disease in C57BL/6J mouse assessed as reduction in liver weight at 50 to 100 mg/kg, ip administered daily for 10 weeks and measured post last dose; assay type: functional, organism-based
# Mus musculus [22] = assay: Protection against 10 week HFD-induced liver disease in C57BL/6J mouse assessed as reduction in hepatic triglyceride accumulation at 50 to 100 mg/kg, ip administered daily for 10 weeks and measured post last dose by H and E staining based histological analysis; assay type: functional, organism-based
# Mus musculus [23] = assay: Protection against 10 week HFD-induced liver disease in C57BL/6J mouse assessed as reduction in hepatic triglyceride accumulation at 50 to 100 mg/kg, ip administered daily for 10 weeks and measured post last dose by triglyceride reagent based colorimetric analysis; assay type: functional, organism-based
# Mus musculus [24] = assay: Protection against 10 week HFD-induced liver disease in C57BL/6J mouse assessed as reduction in body weight gain at 100 mg/kg, ip administered daily for 10 weeks and measured post HFD stimulation; assay type: functional, organism-based
# Mus musculus [25] = assay: Protection against 10 week HFD-induced liver disease in C57BL/6J mouse assessed as reduction in blood glucose level at 100 mg/kg, ip administered daily for 10 weeks and measured 9 weeks post HFD stimulation by IPGTT; assay type: functional, organism-based
# Mus musculus [26] = assay: Protection against 10 week HFD-induced liver disease in C57BL/6J mouse assessed as reduction in body fat accumulation at 100 mg/kg, ip administered daily for 10 weeks and measured post last dose by NMR analysis; assay type: functional, organism-based
# Mus musculus [27] = assay: Protection against 10 week HFD-induced liver disease in C57BL/6J mouse assessed as increase in lead body mass at 100 mg/kg, ip administered daily for 10 weeks and measured post last dose by NMR analysis; assay type: functional, organism-based
# Mus musculus [28] = assay: Protection against 10 week HFD-induced liver disease in C57BL/6J mouse assessed as reduction in inguinal white adipose tissue fat mass at 50 to 100 mg/kg, ip administered daily for 10 weeks and measured post last dose by H and E staining based histological analysis; assay type: functional, organism-based
# Mus musculus [29] = assay: Protection against 10 week HFD-induced liver disease in C57BL/6J mouse assessed as reduction in epididymal white adipose tissue fat mass at 50 to 100 mg/kg, ip administered daily for 10 weeks and measured post last dose by H and E staining based histological analysis; assay type: functional, organism-based
# Mus musculus [30] = assay: Protection against 10 week HFD-induced liver disease in C57BL/6J mouse assessed as reduction in brown adipose tissue fat mass at 50 to 100 mg/kg, ip administered daily for 10 weeks and measured post last dose by H and E staining based histological analysis; assay type: functional, organism-based
# Mus musculus [31] = assay: Protection against 10 week HFD-induced liver disease in C57BL/6J mouse assessed as reduction in adipocyte size of inguinal white adipose tissue at 50 to 100 mg/kg, ip administered daily for 10 weeks and measured post last dose by H and E staining based histological analysis; assay type: functional, organism-based
# Mus musculus [32] = assay: Protection against 10 week HFD-induced liver disease in C57BL/6J mouse assessed as reduction in crownlike structure appearance in epididymal white adipose tissue at 50 to 100 mg/kg, ip administered daily for 10 weeks and measured post last dose by H and E staining based histological analysis; assay type: functional, organism-based
# in vitro = details: rat, liver microsomes
# Description: Stability in rat liver microsomes assessed as parent compound remaining measured after 30 mins
# T1 sequence (P28223 whole entry): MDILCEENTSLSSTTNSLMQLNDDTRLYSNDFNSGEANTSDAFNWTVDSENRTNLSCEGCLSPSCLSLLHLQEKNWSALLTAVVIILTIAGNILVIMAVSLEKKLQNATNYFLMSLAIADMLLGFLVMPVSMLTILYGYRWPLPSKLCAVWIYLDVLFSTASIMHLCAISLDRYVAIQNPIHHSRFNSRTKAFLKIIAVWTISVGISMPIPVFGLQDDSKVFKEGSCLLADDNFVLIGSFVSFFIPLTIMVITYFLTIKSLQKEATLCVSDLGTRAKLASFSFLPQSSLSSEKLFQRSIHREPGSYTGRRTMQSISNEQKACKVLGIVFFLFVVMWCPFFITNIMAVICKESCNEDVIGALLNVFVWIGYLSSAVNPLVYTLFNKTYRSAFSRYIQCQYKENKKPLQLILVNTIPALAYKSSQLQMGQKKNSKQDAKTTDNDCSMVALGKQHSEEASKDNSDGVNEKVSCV
# Sequence of 5-hydroxytryptamine receptor 2B (Homo sapiens) (P41595 whole entry): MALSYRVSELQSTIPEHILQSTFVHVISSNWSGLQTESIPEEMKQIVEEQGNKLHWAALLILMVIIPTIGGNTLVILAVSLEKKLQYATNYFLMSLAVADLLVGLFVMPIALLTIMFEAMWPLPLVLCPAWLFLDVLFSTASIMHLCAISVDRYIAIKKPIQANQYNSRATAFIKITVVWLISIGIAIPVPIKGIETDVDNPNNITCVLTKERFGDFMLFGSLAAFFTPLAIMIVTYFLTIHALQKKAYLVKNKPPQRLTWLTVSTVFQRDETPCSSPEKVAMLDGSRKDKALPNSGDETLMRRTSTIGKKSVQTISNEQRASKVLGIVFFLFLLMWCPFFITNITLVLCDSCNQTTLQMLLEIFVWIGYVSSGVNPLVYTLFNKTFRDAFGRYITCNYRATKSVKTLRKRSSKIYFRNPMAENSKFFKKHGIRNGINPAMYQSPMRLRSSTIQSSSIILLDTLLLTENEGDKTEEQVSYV
# Sequence of 5-hydroxytryptamine receptor 7 (Homo sapiens) (P34969 whole entry): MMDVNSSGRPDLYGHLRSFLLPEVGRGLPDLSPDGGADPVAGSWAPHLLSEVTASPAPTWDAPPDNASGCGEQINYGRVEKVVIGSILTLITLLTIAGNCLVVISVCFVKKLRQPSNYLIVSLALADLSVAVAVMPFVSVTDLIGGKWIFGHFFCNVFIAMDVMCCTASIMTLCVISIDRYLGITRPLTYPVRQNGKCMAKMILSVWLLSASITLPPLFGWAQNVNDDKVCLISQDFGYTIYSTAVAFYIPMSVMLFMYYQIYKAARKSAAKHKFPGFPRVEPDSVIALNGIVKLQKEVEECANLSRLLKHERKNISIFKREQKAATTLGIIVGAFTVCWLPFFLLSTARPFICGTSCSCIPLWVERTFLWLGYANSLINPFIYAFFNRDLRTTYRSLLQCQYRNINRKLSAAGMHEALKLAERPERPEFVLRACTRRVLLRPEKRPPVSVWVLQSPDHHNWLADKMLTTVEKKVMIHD
# Sequence of 5-hydroxytryptamine receptor 1B (Homo sapiens) (P28222 whole entry): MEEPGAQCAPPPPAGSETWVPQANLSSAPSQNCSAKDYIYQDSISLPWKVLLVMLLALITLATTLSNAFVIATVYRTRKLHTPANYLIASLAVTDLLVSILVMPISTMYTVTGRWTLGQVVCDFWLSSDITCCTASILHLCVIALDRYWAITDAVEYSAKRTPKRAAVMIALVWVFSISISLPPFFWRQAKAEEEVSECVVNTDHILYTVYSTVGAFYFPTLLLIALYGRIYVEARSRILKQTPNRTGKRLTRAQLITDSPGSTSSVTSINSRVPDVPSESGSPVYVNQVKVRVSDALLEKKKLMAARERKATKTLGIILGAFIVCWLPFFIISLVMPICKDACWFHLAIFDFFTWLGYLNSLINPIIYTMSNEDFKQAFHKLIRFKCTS
# Sequence of hERG (KCNH2) (Q12809 whole entry): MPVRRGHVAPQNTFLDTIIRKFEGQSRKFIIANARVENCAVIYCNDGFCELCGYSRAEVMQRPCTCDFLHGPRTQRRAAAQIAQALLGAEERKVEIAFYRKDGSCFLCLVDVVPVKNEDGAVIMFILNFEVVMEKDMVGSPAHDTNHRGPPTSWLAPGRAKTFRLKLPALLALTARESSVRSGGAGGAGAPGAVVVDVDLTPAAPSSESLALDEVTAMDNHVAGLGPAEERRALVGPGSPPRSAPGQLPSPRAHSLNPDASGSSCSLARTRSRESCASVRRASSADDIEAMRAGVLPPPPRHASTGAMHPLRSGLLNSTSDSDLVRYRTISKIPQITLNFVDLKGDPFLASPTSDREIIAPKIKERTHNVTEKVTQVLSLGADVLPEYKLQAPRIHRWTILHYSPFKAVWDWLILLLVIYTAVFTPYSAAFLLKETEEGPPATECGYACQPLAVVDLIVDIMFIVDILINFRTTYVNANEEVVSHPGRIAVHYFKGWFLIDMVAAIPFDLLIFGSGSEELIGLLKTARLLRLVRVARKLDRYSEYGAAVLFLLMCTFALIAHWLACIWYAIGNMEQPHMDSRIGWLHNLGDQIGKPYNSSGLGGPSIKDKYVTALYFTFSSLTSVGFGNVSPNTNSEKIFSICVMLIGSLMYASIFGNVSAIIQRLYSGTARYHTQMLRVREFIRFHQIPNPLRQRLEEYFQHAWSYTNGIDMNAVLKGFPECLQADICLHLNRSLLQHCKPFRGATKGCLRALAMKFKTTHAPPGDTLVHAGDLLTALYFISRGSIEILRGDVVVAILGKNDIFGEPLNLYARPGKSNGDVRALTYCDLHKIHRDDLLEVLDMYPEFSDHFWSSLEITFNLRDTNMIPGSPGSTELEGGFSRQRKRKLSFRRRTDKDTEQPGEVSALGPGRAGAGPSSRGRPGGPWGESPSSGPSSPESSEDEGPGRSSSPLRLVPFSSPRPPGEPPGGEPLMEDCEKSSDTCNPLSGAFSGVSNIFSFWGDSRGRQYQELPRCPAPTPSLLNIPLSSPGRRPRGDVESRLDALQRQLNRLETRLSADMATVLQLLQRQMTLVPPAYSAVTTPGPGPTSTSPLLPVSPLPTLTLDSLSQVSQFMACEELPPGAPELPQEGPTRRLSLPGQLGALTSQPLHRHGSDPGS
compound,measurement,setting,value
CC(C)COc1ccc(CNC(=O)N(Cc2ccc(F)cc2)C2CCN(C)CC2)cc1 [PIMAVANSERIN],concentration at 0.5 h,[1],3010 ng/g
same,concentration at 0.5 h,[2],612 ng/mL
same,Kp at 0.5 h,[3],4.98
CC(C)COc1ccc(CNC(=O)N(Cc2ccc(F)cc2)C2CCN(C(=O)CC[C@H](N)C(=O)O)CC2)cc1,IC50,[4],0.00835 µM
same,IC50,Vero,54.7 µM
same,IC50,HFL1,55.2 µM
same,remaining at 0.5 h,[5],89%
same,concentration at 0.5 h,[6],416 ng/mL
same,concentration at 0.5 h,[7],15.1 ng/g
same,Kp at 0.5 h,[8],0.038
same,IC50,L929,64 µM
same,IC50,NIH3T3,18.2 µM
same,IC50,CHO-K1,51 µM
same,inhibition at 10 µM,hERG (KCNH2),18.7%
same,inhibition,[9],-2.8%
same,inhibition,[10],6%
same,inhibition,[11],93%
same,inhibition,[12],7%
same,inhibition,[13],63.8%
same,inhibition,[14],-5%
same,inhibition,[15],6.3%
same,half-life,[16],16.9 h
same,AUC(0-t),[17],1910 ng·h/mL
same,AUC(0-inf),[18],2030 ng·h/mL
same,clearance,[19],41 mL/min/kg
same,Vd,[20],11 L/kg
same,Activity,Mus musculus [21],Active
same,Activity,Mus musculus [22],Active
same,Activity,Mus musculus [23],Active
same,Activity,Mus musculus [24],Active
same,Activity,Mus musculus [25],Active
same,Activity,Mus musculus [26],Active
same,Activity,Mus musculus [27],Active
same,Activity,Mus musculus [28],Active
same,Activity,Mus musculus [29],Active
same,Activity,Mus musculus [30],Active
same,Activity,Mus musculus [31],Active
same,Activity,Mus musculus [32],Active
same,remaining at 0.5 h,in vitro,84%
CC(C)COc1ccc(CNC(=O)N(Cc2ccc(F)cc2)C2CCNCC2)cc1,IC50,[4],0.0006 µM
O=C1CC2(CCCC2)CC(=O)N1CCCCN1CCN(c2ncccn2)CC1 [BUSPIRONE],remaining at 0.5 h,[5],4%
same,remaining at 0.5 h,in vitro,15%
CC(C)COc1ccc(CNC(=O)N(Cc2ccc(F)cc2)C2CCN(C(=O)C[C@H](N)C(=O)O)CC2)cc1,IC50,[4],0.0347 µM
